Experimental findings from PMC8449129, “Single tracer-based protocol for broad-spectrum kinase profiling in live cells with NanoBRET” (STAR Protocols, 2021) are described below.

Experiment [1] concerns the target T1, SBK3 (Homo sapiens, UniProt P0C264).
T1 construct: full-length kinase, N-terminal NanoLuc fusion, transfected HEK293 cells
Briefly: NanoBRET target engagement, Tracer K10 displacement in live HEK293 cells. It counts as cell-based. Conditions: […] h, […] C, n = […]. In general terms: In BRET a luciferase serves as donor, and the signal depends on an acceptor being close.

The target in experiment [2] is T2, EPHA7 (Homo sapiens, UniProt Q15375).
T2 construct: full-length kinase, C-terminal NanoLuc fusion, transfected HEK293 cells
Described as above. Conditions: […] h, […] C, n = […]. It counts as cell-based.
Text: NanoBRET target engagement, Tracer K10 displacement in live HEK293 cells on EPHA7

Experiment [3] addresses CDK1 (Homo sapiens, UniProt P06493). As to the kind of experiment: cell-based. Conditions: HEK293, read-out: % inhibition. More on the design: NanoBRET live-cell target engagement; % occupancy from displacement of tracer K10 on NanoLuc-kinase fusions, mean n=3. The procedure, abridged:
(§1)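 Live-cell NanoBRET target engagement: cells expressing kinase–NanoLuc fusion with tracer treated with compound 2 h at 37 °C, 5% CO2. BRET read from donor (450 nm) and acceptor (610/630 nm) emission with 20 μM extracellular NanoLuc inhibitor; % occupancy calculated relative to tracer+DMSO and zero-BRET controls.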

The target in experiment [4] is CLK4 (Homo sapiens, UniProt Q9HAZ1). As to the kind of experiment: cell-based. Conditions: HEK293, read-out: % inhibition. More on the design: NanoBRET live-cell target engagement; % occupancy from displacement of tracer K10 on NanoLuc-kinase fusions, mean n=3. The procedure, abridged:
as §1

Experiment [5] has as its target HIPK2 (Homo sapiens, UniProt Q9H2X6). Briefly: cell-based. More on the design: NanoBRET live-cell target engagement; % occupancy from displacement of tracer K10 on NanoLuc-kinase fusions, mean n=3. Conditions: HEK293, read-out: % inhibition. The procedure, abridged:
as §1

Experiment [6] has as its target IGF1R (Homo sapiens, UniProt P08069). As to the kind of experiment: cell-based. More on the design: NanoBRET live-cell target engagement; % occupancy from displacement of tracer K10 on NanoLuc-kinase fusions, mean n=3. Conditions: HEK293, read-out: % inhibition. In short, it runs like this:
as §1

The target of experiment [7] is IRAK3 (Homo sapiens, UniProt Q9Y616). Briefly: cell-based. On the set-up: NanoBRET live-cell target engagement; % occupancy from displacement of tracer K10 on NanoLuc-kinase fusions, mean n=3. Conditions: HEK293, read-out: % inhibition. In short, it runs like this:
as §1

In experiment [8] the target is JAK3 (Homo sapiens, UniProt P52333). As to the kind of experiment: cell-based. More on the design: NanoBRET live-cell target engagement; % occupancy from displacement of tracer K10 on NanoLuc-kinase fusions, mean n=3. Conditions: HEK293, read-out: % inhibition. The procedure, abridged: as §1
The target in experiment [9] is T3, JNK3 (Homo sapiens, UniProt P53779).
T3 construct: gene MAPK10
Briefly: cell-based. On the set-up: NanoBRET live-cell target engagement; % occupancy from displacement of tracer K10 on NanoLuc-kinase fusions, mean n=3. Conditions: HEK293, read-out: % inhibition. The procedure, abridged:
as §1

Experiment [10] concerns the target MAP3K9 (Homo sapiens, UniProt P80192). Briefly: cell-based. Conditions: HEK293, read-out: % inhibition. More on the design: NanoBRET live-cell target engagement; % occupancy from displacement of tracer K10 on NanoLuc-kinase fusions, mean n=3. The procedure, abridged:
as §1

The target in experiment [11] is MAPK11 (Homo sapiens, UniProt Q15759). As to the kind of experiment: cell-based. On the set-up: NanoBRET live-cell target engagement; % occupancy from displacement of tracer K10 on NanoLuc-kinase fusions, mean n=3. Conditions: HEK293, read-out: % inhibition. In short, it runs like this:
as §1

Experiment [12] addresses MAPK9 (Homo sapiens, UniProt P45984). Briefly: cell-based. Conditions: HEK293, read-out: % inhibition. More on the design: NanoBRET live-cell target engagement; % occupancy from displacement of tracer K10 on NanoLuc-kinase fusions, mean n=3. In short, it runs like this: as §1
The target in experiment [13] is NEK11 (Homo sapiens, UniProt Q8NG66). Briefly: cell-based. More on the design: NanoBRET live-cell target engagement; % occupancy from displacement of tracer K10 on NanoLuc-kinase fusions, mean n=3. Conditions: HEK293, read-out: % inhibition. In short, it runs like this:
as §1

The target of experiment [14] is PTK2 (Homo sapiens, UniProt Q05397). Briefly: cell-based. Conditions: HEK293, read-out: % inhibition. More on the design: NanoBRET live-cell target engagement; % occupancy from displacement of tracer K10 on NanoLuc-kinase fusions, mean n=3. In short, it runs like this: as §1
For experiment [15], the target named is RIPK1 (Homo sapiens, UniProt Q13546). As to the kind of experiment: cell-based. More on the design: NanoBRET live-cell target engagement; % occupancy from displacement of tracer K10 on NanoLuc-kinase fusions, mean n=3. Conditions: HEK293, read-out: % inhibition. The procedure, abridged:
as §1

The target of experiment [16] is TLK1 (Homo sapiens, UniProt Q9UKI8). Briefly: cell-based. More on the design: NanoBRET live-cell target engagement; % occupancy from displacement of tracer K10 on NanoLuc-kinase fusions, mean n=3. Conditions: HEK293, read-out: % inhibition. The procedure, abridged:
as §1

Chain of MAPK11 (Q15759 whole entry, the tested form may be a part): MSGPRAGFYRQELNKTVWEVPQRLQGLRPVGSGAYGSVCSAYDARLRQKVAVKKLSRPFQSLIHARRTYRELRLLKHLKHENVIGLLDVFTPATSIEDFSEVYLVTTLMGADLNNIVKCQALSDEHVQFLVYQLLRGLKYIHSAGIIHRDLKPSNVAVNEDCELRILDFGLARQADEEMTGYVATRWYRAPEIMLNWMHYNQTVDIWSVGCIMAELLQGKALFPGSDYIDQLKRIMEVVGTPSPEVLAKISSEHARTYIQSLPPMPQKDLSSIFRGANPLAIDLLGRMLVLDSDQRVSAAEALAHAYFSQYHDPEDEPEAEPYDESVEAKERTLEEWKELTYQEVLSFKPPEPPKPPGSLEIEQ
Chain of CDK1 (P06493 whole entry, the tested form may be a part): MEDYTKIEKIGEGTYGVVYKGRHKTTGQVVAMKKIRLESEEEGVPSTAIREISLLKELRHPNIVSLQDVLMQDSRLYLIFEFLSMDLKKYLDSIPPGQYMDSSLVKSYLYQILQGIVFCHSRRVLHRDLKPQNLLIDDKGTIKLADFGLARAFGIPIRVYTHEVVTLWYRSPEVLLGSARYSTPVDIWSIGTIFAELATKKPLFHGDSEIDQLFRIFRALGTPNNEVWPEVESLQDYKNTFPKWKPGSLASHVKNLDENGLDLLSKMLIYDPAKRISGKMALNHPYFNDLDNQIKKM
Chain of JAK3 (P52333 whole entry, the tested form may be a part): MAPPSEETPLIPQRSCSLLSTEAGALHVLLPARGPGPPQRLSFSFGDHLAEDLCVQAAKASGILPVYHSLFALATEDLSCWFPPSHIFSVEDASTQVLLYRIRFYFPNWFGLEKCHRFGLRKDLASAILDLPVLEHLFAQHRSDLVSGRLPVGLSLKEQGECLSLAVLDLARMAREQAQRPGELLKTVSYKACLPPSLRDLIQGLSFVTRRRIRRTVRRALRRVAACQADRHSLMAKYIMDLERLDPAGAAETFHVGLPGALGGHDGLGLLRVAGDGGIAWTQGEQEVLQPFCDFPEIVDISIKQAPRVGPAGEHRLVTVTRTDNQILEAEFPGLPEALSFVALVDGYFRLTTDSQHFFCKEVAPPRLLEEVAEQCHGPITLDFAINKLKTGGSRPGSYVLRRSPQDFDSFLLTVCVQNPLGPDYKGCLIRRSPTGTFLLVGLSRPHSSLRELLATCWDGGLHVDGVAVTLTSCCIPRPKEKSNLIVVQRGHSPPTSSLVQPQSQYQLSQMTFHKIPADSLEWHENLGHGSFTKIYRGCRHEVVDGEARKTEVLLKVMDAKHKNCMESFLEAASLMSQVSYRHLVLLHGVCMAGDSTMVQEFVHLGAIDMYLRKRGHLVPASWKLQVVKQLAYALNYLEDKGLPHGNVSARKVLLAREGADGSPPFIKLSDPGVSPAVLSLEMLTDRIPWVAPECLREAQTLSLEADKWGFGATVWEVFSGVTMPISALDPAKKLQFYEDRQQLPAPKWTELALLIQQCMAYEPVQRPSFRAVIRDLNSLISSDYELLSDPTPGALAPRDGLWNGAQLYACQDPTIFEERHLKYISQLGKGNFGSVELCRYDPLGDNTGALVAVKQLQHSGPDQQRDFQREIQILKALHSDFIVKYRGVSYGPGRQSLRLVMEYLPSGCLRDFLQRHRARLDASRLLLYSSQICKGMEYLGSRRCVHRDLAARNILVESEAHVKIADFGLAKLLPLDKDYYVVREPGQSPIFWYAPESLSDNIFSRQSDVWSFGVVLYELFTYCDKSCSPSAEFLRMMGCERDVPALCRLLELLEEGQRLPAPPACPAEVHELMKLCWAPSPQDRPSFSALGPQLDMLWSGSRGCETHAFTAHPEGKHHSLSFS
T3 sequence (P53779 whole entry): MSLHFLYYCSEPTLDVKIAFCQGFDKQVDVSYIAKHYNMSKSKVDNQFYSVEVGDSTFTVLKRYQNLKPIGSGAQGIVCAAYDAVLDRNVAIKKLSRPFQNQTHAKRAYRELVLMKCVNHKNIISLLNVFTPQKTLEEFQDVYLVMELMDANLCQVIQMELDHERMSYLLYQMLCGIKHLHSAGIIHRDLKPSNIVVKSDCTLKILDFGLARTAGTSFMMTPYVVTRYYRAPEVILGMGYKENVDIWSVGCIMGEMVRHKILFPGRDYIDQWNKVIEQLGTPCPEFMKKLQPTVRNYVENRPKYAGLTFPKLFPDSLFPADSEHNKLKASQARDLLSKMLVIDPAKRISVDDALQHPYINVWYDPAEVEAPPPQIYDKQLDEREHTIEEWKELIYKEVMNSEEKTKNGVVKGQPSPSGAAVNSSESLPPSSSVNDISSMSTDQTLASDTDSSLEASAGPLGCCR
Chain of HIPK2 (Q9H2X6 whole entry, the tested form may be a part): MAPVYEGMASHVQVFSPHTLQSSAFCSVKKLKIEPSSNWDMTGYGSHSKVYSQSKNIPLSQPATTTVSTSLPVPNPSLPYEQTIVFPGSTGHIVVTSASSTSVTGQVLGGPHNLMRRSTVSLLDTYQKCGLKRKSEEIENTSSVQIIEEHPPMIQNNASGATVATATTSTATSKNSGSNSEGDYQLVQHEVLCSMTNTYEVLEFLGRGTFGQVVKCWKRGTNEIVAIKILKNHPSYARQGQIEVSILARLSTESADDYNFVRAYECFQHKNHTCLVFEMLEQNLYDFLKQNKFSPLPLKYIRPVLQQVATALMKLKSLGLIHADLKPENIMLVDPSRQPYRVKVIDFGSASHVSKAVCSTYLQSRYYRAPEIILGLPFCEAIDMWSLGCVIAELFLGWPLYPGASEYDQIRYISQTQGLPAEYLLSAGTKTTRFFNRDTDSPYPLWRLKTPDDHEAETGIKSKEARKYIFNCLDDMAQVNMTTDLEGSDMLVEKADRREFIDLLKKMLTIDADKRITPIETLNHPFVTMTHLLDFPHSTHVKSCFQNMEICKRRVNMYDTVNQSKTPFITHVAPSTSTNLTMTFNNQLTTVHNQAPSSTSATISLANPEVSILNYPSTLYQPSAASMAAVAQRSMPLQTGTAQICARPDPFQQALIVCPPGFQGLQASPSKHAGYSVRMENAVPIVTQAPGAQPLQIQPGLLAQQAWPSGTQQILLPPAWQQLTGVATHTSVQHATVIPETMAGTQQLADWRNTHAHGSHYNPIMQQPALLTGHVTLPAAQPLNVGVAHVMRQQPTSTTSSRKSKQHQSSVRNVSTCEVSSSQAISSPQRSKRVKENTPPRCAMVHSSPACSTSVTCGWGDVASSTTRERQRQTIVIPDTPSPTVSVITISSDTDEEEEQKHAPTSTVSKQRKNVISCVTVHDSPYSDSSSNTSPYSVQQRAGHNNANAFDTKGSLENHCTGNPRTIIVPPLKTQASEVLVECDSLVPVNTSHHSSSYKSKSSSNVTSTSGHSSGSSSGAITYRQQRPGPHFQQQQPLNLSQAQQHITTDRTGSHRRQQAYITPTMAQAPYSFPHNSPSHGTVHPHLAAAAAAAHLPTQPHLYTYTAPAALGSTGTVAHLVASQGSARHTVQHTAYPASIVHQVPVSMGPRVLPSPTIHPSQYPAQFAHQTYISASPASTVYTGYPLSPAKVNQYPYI
Chain of IGF1R (P08069 whole entry, the tested form may be a part): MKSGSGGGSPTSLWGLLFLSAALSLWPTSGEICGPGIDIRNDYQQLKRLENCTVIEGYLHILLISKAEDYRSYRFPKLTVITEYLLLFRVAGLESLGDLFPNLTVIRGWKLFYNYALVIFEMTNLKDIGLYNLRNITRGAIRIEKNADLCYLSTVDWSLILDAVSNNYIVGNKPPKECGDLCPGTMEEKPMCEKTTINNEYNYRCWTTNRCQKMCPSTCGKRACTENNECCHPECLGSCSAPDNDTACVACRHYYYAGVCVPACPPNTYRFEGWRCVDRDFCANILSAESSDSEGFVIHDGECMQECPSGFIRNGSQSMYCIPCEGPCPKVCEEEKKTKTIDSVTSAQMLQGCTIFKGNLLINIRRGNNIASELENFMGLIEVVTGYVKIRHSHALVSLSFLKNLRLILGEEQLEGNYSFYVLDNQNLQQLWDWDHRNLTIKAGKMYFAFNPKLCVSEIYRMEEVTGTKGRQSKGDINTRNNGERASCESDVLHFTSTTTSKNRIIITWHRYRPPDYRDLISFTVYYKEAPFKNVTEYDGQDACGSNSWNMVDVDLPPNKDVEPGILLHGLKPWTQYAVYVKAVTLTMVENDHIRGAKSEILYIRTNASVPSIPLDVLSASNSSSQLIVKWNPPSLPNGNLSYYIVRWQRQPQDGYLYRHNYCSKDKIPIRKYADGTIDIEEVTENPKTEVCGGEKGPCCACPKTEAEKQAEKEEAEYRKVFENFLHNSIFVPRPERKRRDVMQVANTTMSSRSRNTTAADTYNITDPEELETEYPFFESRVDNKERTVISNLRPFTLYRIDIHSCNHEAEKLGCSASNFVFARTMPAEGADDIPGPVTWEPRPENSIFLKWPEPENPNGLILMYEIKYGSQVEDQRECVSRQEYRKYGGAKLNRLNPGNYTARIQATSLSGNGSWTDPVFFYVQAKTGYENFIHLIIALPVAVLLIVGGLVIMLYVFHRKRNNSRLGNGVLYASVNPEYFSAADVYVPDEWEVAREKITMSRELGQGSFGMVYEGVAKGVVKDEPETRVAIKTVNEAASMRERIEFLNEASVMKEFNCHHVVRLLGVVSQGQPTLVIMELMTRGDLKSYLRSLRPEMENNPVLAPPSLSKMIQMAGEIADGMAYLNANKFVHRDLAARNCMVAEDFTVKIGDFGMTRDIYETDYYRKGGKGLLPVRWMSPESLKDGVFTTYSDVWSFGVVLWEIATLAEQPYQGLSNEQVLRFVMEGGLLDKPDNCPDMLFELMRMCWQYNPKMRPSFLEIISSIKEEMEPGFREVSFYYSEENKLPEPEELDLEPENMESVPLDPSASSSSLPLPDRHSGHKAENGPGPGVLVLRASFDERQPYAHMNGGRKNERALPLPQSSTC

As usually defined, the inhibition is the relative decrease from the control value, in per cent. As to `C[C@@H](Oc1cc(-c2cnn(C3CCNCC3)c2)cnc1N)c1c(Cl)ccc(F)c1Cl` [crizotinib], the “Crizotinib % occupancy, 1 uM” value was 41 ± 5.6% in experiment [1] and 38 ± 2.4% in [2]. Moreover, the inhibition at 1 µM in [3] was 7%; in experiment [4], -19%; in [5] it was 5%; in experiment [6] it was 18%; in experiment [7] it was 42%; in experiment [8], 2%. The inhibition at 1 µM in experiment [9] is -4%; in [10], -1%; in experiment [11], 0%; in experiment [12], -11%; in experiment [13] it was 7%; in experiment [14] it was 40%. Besides, the figures for the inhibition at 1 µM in experiment [15] and in [16] were 23% and -5%, respectively.
